For 25 compounds, IC50 results are on record in patent US20260207565A1, “COMPOUNDS THAT INHIBIT PKMYT1” (Exelixis, Inc., priority 2022, published 2026).

Where two headings read alike, the source gives them in different places.

Assay [1] addresses T1, PKMYT1 (Homo sapiens, UniProt Q99640).
T1 construct: PKMYT1 (93 kD, full length, N-terminal GST tag from Signal Chem); GST (N); purchased Signal Chem
T1 sequence (Q99640 1-499): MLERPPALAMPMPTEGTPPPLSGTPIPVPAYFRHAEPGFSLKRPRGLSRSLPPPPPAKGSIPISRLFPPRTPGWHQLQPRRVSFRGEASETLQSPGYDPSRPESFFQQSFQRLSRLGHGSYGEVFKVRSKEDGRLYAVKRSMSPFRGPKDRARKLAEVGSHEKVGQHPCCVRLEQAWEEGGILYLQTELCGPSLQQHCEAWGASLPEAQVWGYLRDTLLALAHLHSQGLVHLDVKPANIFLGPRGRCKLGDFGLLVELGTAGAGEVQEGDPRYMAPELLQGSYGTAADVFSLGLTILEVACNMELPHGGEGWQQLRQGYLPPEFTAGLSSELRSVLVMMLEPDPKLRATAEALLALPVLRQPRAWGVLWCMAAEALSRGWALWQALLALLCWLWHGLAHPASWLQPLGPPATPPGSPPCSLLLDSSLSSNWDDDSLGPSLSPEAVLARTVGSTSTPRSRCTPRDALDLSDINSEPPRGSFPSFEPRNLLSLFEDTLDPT
As to the kind of experiment: ADP-Glo PKMYT1 ATP-depletion assay. The settings on record: 50 nM PKMYT1, 13.3 nM CDK1, 88 μM ATP, 120 minutes at RT, read-out: Biochemical IC50. The method, then:
(§1) Biochemical IC50 values were determined via ADP-Glo™ assay. Cellular IC50 values were determined via AlphaLISA assay.
ADP-Glo™ PKMYT1 ATP-depletion assay. The activity of PKMYT1 is measured using a luciferase-luciferin based ATP detection reaction to quantify ATP depletion resulting from kinase-catalyzed phosphoryl transfer to CDK1 or autophosphorylation of PKMYT1. The ADP generated as a byproduct of the reaction is converted to ATP and used to drive a luciferase reaction. Test compounds were dissolved in DMSO and dispensed into Corning 3824 384-well plates prior to the experiment such that the final DMSO concentration was <10%. To the compounds was added 3 μL of PKMYT1 (93 kD, full length, N-terminal GST tag from Signal Chem). The reaction was started by the addition of 2 μL of CDK1 (58 kDa, full length, N-terminal GST tag from Signal Chem) and ATP in assay buffer (50 mM Hepes, 40 mM NaCl, 10 mM MgCl2, 1 mM DTT, 0.1 mg/mL BSA, 2.5 mM MnCl2). Final assay concentrations were 50 nM PKMYT1, 13.3 nM CDK1, and 88 μM ATP. Plates were centrifuged for 1 minute at 1000 RPM and incubated at RT for 120 minutes. After the incubation period, ADP-Glo™ reagent was added and the plates were incubated for another 40 minutes before finally adding the kinase detection reagent, 30 minutes after the addition, plates were placed on a PHERAstar® plate reader and read using the Luminescence Protocol, integration time at 0.5 seconds.

Assay [2] relates to phosphorylation of CDK1 at Thr14 in HCC1806 cells. The assay is described as follows: Cell lysate AlphaLISA assay measuring inhibition of phosphorylation of CDK1 Thr14. It is filed as cell-based. The settings on record: compounds incubated 4 hours, AlphaLISA SureFire Ultra CDK1 Thr14, read-out: Cellular IC50. The method, then: as §1
Cell lysate AlphaLISA® assay measuring inhibition of phosphorvlation of CDK1 Thr14. Inhibition of phosphorylation of CDK1 at Thr14 was determined using AlphaLISAn SureFire® Ultra™ Kit from Perkin Elmer (ALSU-PCDK1-A10K). HCC1806 cells were seeded at 2K cells per well (50 μl/well) in 384-well plates (Corning 3570) and stored overnight at 37° C. and 5% CO2. The following day, the compounds dissolved in DMSO were introduced to the cells and incubated for 4 hours at 37° C. and 5% CO2. The cells were then washed with PBS using Blue® Washer and 10 μl of lysis buffer containing protease inhibitor was added. The plate was placed on an orbital shaker (at 4° C.) for 30 minutes and stored overnight at −80° C. for complete lysing. The next day, the plates were thawed at room temperature for at least 30 min. Reagents were prepared in a dimmed light setting (<100 lumens). The assay was run by first adding 5 μl of the acceptor mix (reaction buffer 1: reaction buffer 2:activation buffer:acceptor beads 47:47:4:2), covering the plate with foil, shaking for 2 minutes, and incubating at RT for 60 minutes. The donor mix (dilution buffer:donor beads 47:3) was then added at 5 μl per well, placed on the shaker for 2 minutes and incubated at RT for 60 minutes before reading the plates on a PHERAstar® plate reader. The results were normalized to DMSO (0% Inhibition) and 3 μM of reference compound.
For orientation: Bead proximity is the source of the signal in Alpha formats.

One may read the IC50 as the concentration that gives 50% inhibition. Take `Cc1c(O)cccc1-c1c(N)c(C(N)=O)nc2c1c(C#N)nn2C` (single isomer, unassigned) [Compound 58, (M)-5-Amino-3-cyano-4-(3-hydroxy-2-methylphenyl)-1-methyl-1H-pyrazolo[3,4-b]pyridine-6-carboxamide]: the IC50 in assay [1] was < 50 nM; in assay [2] it was 50 to 500 nM.

Consider `Cc1c(O)cccc1-c1c(N)c(C(N)=O)nc2c1c(C#N)nn2C` (single isomer, unassigned) [Compound 59, (P)-5-amino-3-cyano-4-(3-hydroxy-2-methylphenyl)-1-methyl-1H-pyrazolo[3,4-b]pyridine-6-carboxamide], for which the values for the IC50 in assay [1] and in assay [2] were 1000 to 5000 nM and ≥ 5000 nM, respectively.

`CCn1cc(-c2cn[nH]c2)c2c(-c3c(C)ccc(O)c3C)cc(C(N)=O)nc21` (single isomer, unassigned) [Compound 69, (P)-1-Ethyl-4-(3-hydroxy-2,6-dimethylphenyl)-3-(1H-pyrazol-4-yl)-1H-pyrrolo[2,3-b]pyridine-6-carboxamide]: the IC50 in assay [1] is < 50 nM; in assay [2] (Homo sapiens, HCC1806, 4 h), < 50 nM.

With `Cc1ccc(O)c(C)c1-c1c(N)c(C(N)=O)nc2c1ncn2C1CC1` (single isomer, unassigned) [Compound 77, (P)-6-amino-3-cyclopropyl-7-(3-hydroxy-2,6-dimethylphenyl)-3H-imidazo[4,5-b]pyridine-5-carboxamide], the IC50 was < 50 nM in assay [1] and < 50 nM in assay [2] (Homo sapiens, HCC1806, 4 h).

On to `CCn1cc(C#N)c2c(-c3c(C)ccc(O)c3C)cc(C(N)=O)nc21` (single isomer, unassigned) [Compound 79], for which the IC50 in assay [1] was < 50 nM; in assay [2] (Homo sapiens, HCC1806, 4 h), < 50 nM.

In the case of `CCn1cc(C#N)c2c(-c3ccc(C)c(O)c3C)c(N)c(C(N)=O)nc21` (single isomer, unassigned) [Compound 82, (M)-5-amino-3-cyano-1-ethyl-4-(3-hydroxy-2,4-dimethylphenyl)-1H-pyrrolo[2,3-b]pyridine-6-carboxamide], the IC50 in assay [1] was < 50 nM; in assay [2] (Homo sapiens, HCC1806, 4 h) it was < 50 nM.

Turning to `Cc1ccc(O)c(C)c1-c1c(N)c(C(N)=O)nc2c1ncn2C(C)C` (single isomer, unassigned) [Compound 83, (P)-6-amino-7-(3-hydroxy-2,6-dimethylphenyl)-3-isopropyl-3H-imidazo[4,5-b]pyridine-5-carboxamide], the IC50 is < 50 nM in assay [1] and < 50 nM in assay [2] (Homo sapiens, HCC1806, 4 h).

`Cc1ccc(O)c(C)c1-c1c(N)c(C(N)=O)nc2c1nc(C)n2C(C)C` (single isomer, unassigned) [Compound 84, (P)-6-amino-7-(3-hydroxy-2,6-dimethylphenyl)-3-isopropyl-2-methyl-3H-imidazo[4,5-b]pyridine-5-carboxamide]: the IC50 in assay [1] is < 50 nM; in assay [2] (Homo sapiens, HCC1806, 4 h), < 50 nM.

As for `Cc1ccc(O)c(C)c1-c1c(N)c(C(N)=O)nc2c1ncn2C` [Compound 1, 6-Amino-7-(3-hydroxy-2,6-dimethylphenyl)-3-methyl-3H-imidazo[4,5-b]pyridine-5-carboxamide], the concentration for half-maximal inhibition (IC50) is < 50 nM in assay [1] and 50 to 500 nM in assay [2] (Homo sapiens, HCC1806, 4 h).

With `Cn1cc(C#N)c2c(-c3cccc(O)c3)c(N)c(C(N)=O)nc21` [Compound 7, 5-Amino-3-cyano-4-(3-hydroxyphenyl)-1-methyl-1H-pyrrolo[2,3-b]pyridine-6-carboxamide], the IC50 in assay [1] was < 50 nM; in assay [2] (Homo sapiens, HCC1806, 4 h), 50 to 500 nM.

Consider `Cc1c(F)cncc1-c1c(N)c(C(N)=O)nc2c1c(C#N)cn2C` [Compound 8, 5-Amino-3-cyano-4-(5-fluoro-4-methylpyridin-3-yl)-1-methyl-1H-pyrrolo[2,3-b]pyridine-6-carboxamide], for which the IC50 was < 50 nM in assay [1] and 50 to 500 nM in assay [2] (Homo sapiens, HCC1806, 4 h).

Consider `Cc1c(O)cccc1-c1c(N)c(C(N)=O)nc2c1c(C#N)c(C)n2C` [Compound 9, 5-amino-3-cyano-4-(3-hydroxy-2-methylphenyl)-1,2-dimethyl-1H-pyrrolo[2,3-b]pyridine-6-carboxamide], for which the IC50 is < 50 nM in assay [1] and 50 to 500 nM in assay [2] (Homo sapiens, HCC1806, 4 h).

Turning to `Cc1c(Cl)cncc1-c1c(N)c(C(N)=O)nc2c1c(C#N)c(C)n2C` [Compound 12], the IC50 is < 50 nM in assay [1] and 50 to 500 nM in assay [2] (Homo sapiens, HCC1806, 4 h).

Take `Cc1ccc(O)c(C)c1-c1c(N)c(C(N)=O)nc2c1c(C#N)cn2C` [Compound 13]: the IC50 is < 50 nM in assay [1] and < 50 nM in assay [2] (Homo sapiens, HCC1806, 4 h).

Turning to `Cc1c(O)cccc1-c1c(N)c(C(N)=O)nc2c1c(C#N)c(C)n2CC(F)(F)F` [Compound 14], the IC50 was < 50 nM in assay [1] and < 50 nM in assay [2] (Homo sapiens, HCC1806, 4 h).

Take `Cc1ccc(O)c(C)c1-c1c(N)c(C(N)=O)cc2c1nc(C)n2C` [Compound 15, 5-amino-4-(3-hydroxy-2,6-dimethylphenyl)-1,2-dimethyl-1H-benzo[d]imidazole-6-carboxamide]: the IC50 in assay [1] is < 50 nM; in assay [2] (Homo sapiens, HCC1806, 4 h), 500 to 1000 nM.

For `Cc1ccc(O)c(C)c1-c1cc(C(N)=O)nc2cn[nH]c12` [Compound 16, 7-(3-hydroxy-2,6-dimethylphenyl)-1H-pyrazolo[4,3-b]pyridine-5-carboxamide], the IC50 in assay [1] is 1000 to 5000 nM; in assay [2] (Homo sapiens, HCC1806, 4 h), ≥ 5000 nM.

As to `Cc1ccc(O)c(C)c1-c1cc(C(N)=O)nc2c1cnn2C` [Compound 17, 4-(3-hydroxy-2,6-dimethylphenyl)-1-methyl-pyrazolo[3,4-b]pyridine-6-carboxamide], the IC50 in assay [1] was 1000 to 5000 nM; in assay [2] (Homo sapiens, HCC1806, 4 h), ≥ 5000 nM.

On to `Cc1ccc(O)c(C)c1-c1cc(C(N)=O)nc2cnn(C)c12` [Compound 18, 7-(3-hydroxy-2,6-dimethylphenyl)-1-methyl-pyrazolo[4,3-b]pyridine-5-carboxamide], for which the IC50 is 1000 to 5000 nM in assay [1] and ≥ 5000 nM in assay [2] (Homo sapiens, HCC1806, 4 h).

For the compound `CNC(=O)c1cc(-c2c(C)ccc(O)c2C)c2[nH]ncc2n1` [Compound 19, 7-(3-hydroxy-2,6-dimethylphenyl)-N-methyl-1H-pyrazolo[4,3-b]pyridine-5-carboxamide], the IC50 is ≥ 5000 nM in assay [1] and ≥ 5000 nM in assay [2] (Homo sapiens, HCC1806, 4 h).

As for `Cc1ccc(O)c(C)c1-c1cc(C(=O)N(C)C)nc2cn[nH]c12` [Compound 20], the IC50 is ≥ 5000 nM in assay [1] and ≥ 5000 nM in assay [2] (Homo sapiens, HCC1806, 4 h).

As to `Cc1ccc(O)c(C)c1-c1cc(C(N)=O)nc2c1ccn2C` [Compound 21, 4-(3-hydroxy-2,6-dimethylphenyl)-1-methyl-pyrrolo[2,3-b]pyridine-6-carboxamide], the IC50 was 500 to 1000 nM in assay [1] and ≥ 5000 nM in assay [2] (Homo sapiens, HCC1806, 4 h).

As for `Cc1ccc(O)c(C)c1-c1cc(C(N)=O)nc2c1c(C#N)cn2C` [Compound 22, 3-cyano-4-(3-hydroxy-2,6-dimethylphenyl)-1-methyl-pyrrolo[2,3-b]pyridine-6-carboxamide], the IC50 was < 50 nM in assay [1] and 50 to 500 nM in assay [2] (Homo sapiens, HCC1806, 4 h).

Turning to `Cc1ccc(O)c(C)c1-c1cc(C(N)=O)nc2c1c(Br)cn2C` [Compound 24], the IC50 in assay [1] lay in the range of 50 to 500 nM; in assay [2] (Homo sapiens, HCC1806, 4 h), 1000 to 5000 nM.

`Cc1c(O)cccc1-c1cc(C(N)=O)nc2c1c(C#N)cn2C` [Compound 28, 3-cyano-4-(3-hydroxy-2-methylphenyl)-1-methyl-pyrrolo[2,3-b]pyridine-6-carboxamide]: the IC50 was in the range of 50 to 500 nM in assay [1] and 500 to 1000 nM in assay [2] (Homo sapiens, HCC1806, 4 h).
